Tested on: Staphylococcus epidermidis biofilm
Assay: In-vitro biofilm microtitre plate assay, regrowth of biofilm after 1 minute treatment (growth index, GRI)
Assay type: cell-based
Conditions: conclusion in words from normalised GRI of soap + clay + antibacterial combinations
Method: A biofilm based microtitre plate assay was used to determine the antibacterial efficacy of the test suspensions. The efficacy is measured in terms of an index called the growth index [GRI].
An axillary isolate of Staphylococcus epidermidis was used for all the studies. The isolate was maintained on sterile CYAgar [Blood agar base 2—42 gm.1^−1, dextrose—2 gm.1^−1, yeast extract—3 gm.1^−1, polysorbate 80—5 gm.1^−1]. 24 hrs prior to the study, the isolate was subcultured onto fresh sterile CYAgar and incubated at 37° C. […]
Standardization of biofilm in terms of its attachment to polystyrene wells was initially carried out by crystal violet staining and quantification of cell numbers. […]
A kinetic assay was performed to measure the regrowth of the biofilm in an iEMS reader using the Thermo Labsystems Ascent Software™. Readings were recorded at 37° C. for 24 hrs on an hourly basis at 620 nm.
Growth of bacteria is represented by 4 phases—lag phase, exponential phase, stationary phase and death phase. […] The cumulative effect of the antibacterial over the placebo effect can be determined by the product of the increase in the time taken to reach the mid log phase from the control, and the decrease in the cell density after 24 hrs of growth. […]

O=C(Nc1ccc(Cl)cc1)Nc1ccc(Cl)c(Cl)c1 [TCC, 3,4,4′ trichlorocarbanilide]
synergistic benefit in antibacterial efficacy: do not provide similar synergistic benefit

Oc1cc(Cl)ccc1Oc1ccc(Cl)cc1Cl [TCN, 4,2′,4′-trichloro-2-hydroxy diphenyl ether]
synergistic benefit in antibacterial efficacy: do not provide similar synergistic benefit

From patent publication US20060111259A1, “Detergent composition” (Conopco Inc, d/b/a UNILEVER, priority 2004, published 2006)
